Patent publication US11304934B2, “Use of isoxazoline derivatives for the treatment or prevention of arthropod infestations in poultry” (Intervet Inc., priority 2013, dated 2022)

Tests used:
Dermanyssus gallinae = test: Efficacy of fluralaner via medicated drinking water against artificially induced poultry red mite infestations of laying hens; format: in vivo; details: for % Inhibition of mites 24 hours after infestation / % Mortality of mites 24 hours after infestation: laying hens
Experimental: (§1) Groups A-D (n=6) were treated with doses of 2, 1 and 0.5 mg fluralaner/kg BW once or 1 mg fluralaner/kg BW split dose (0.5 mg/kg BW on 2 occasions).
Drinking water consumption in each was measured on three days prior to administration to calculate the average daily water consumption. Medicated water was prepared by diluting a fluralaner solution (10 mg/mL) as shown in the table below to the calculated fluralaner concentration.
(§2) On D0 (group D additionally on D7), the hens in groups A-D received fluralaner via medicated drinking water. Group E received un-medicated drinking water ad libitum.
The dose to be administered was calculated based on average body weights of each treatment group, obtained one day before treatment (D-1, D6). A fluralaner stock solution was diluted in the drinking water to prepare medicated water ready for consumption.
The volume of medicated water offered per group on D0 (group D also on D7) was approximately 50% of the calculated mean daily water intake measured previously in the respective group in order to ensure consumption of the full dose.
Once all medicated water was consumed the other 50% volume of the mean daily water intake was supplied as tap water in the same drinker.
On Day 1, Day 5, Day 8, Day 12, D15, D19 and D22 four of six hens per group were infested with approximately 200 vital, D. gallinae mites (unfed nymphs and adults that starved before infestation for 7 days).
From each infested hen approximately 25 engorged mites were collected and incubated for approximately 24 hours. The dead, damaged and/or live mites were counted visually using a binocular.
Mites were classified as dead if no movement was determined or mites lay in a dorsal position. Mites were classified as damaged if their movement was uncoordinated.
The Mite Mortality and Mite Inhibition percentage was calculated for each treated group in comparison to a not-treated negative control group.

[1] = Tolerability of fluralaner via medicated drinking water in hens; format: in vivo, laying hens; details: 2, 1, 0.5 mg/kg BW once or 2 × 0.5 mg/kg BW via medicated drinking water
Experimental: as §1, §2

[2] = Group A, 2 mg/kg BW once (D0) via drinking water, infestation on D1
[3] = Group A, 2 mg/kg BW once (D0) via drinking water, infestation on D5
[4] = Group A, 2 mg/kg BW once (D0) via drinking water, infestation on D8
[5] = Group A, 2 mg/kg BW once (D0) via drinking water, infestation on D12
[6] = Group A, 2 mg/kg BW once (D0) via drinking water, infestation on D15
[7] = Group A, 2 mg/kg BW once (D0) via drinking water, infestation on D19
[8] = Group A, 2 mg/kg BW once (D0) via drinking water, infestation on D22
[9] = Group B, 1 mg/kg BW once (D0) via drinking water, infestation on D1
[10] = Group B, 1 mg/kg BW once (D0) via drinking water, infestation on D5
[11] = Group B, 1 mg/kg BW once (D0) via drinking water, infestation on D8
[12] = Group B, 1 mg/kg BW once (D0) via drinking water, infestation on D12
[13] = Group B, 1 mg/kg BW once (D0) via drinking water, infestation on D15
[14] = Group B, 1 mg/kg BW once (D0) via drinking water, infestation on D19
[15] = Group B, 1 mg/kg BW once (D0) via drinking water, infestation on D22
[16] = Group C, 0.5 mg/kg BW once (D0) via drinking water, infestation on D1
[17] = Group C, 0.5 mg/kg BW once (D0) via drinking water, infestation on D5
[18] = Group C, 0.5 mg/kg BW once (D0) via drinking water, infestation on D8
[19] = Group C, 0.5 mg/kg BW once (D0) via drinking water, infestation on D12
[20] = Group C, 0.5 mg/kg BW once (D0) via drinking water, infestation on D15
[21] = Group C, 0.5 mg/kg BW once (D0) via drinking water, infestation on D19
[22] = Group C, 0.5 mg/kg BW once (D0) via drinking water, infestation on D22
[23] = Group D, 1 (2 × 0.5) mg/kg BW split dose on D0 and D7 via drinking water, infestation on D1
[24] = Group D, 1 (2 × 0.5) mg/kg BW split dose on D0 and D7 via drinking water, infestation on D5
[25] = Group D, 1 (2 × 0.5) mg/kg BW split dose on D0 and D7 via drinking water, infestation on D8
[26] = Group D, 1 (2 × 0.5) mg/kg BW split dose on D0 and D7 via drinking water, infestation on D12
[27] = Group D, 1 (2 × 0.5) mg/kg BW split dose on D0 and D7 via drinking water, infestation on D15
[28] = Group D, 1 (2 × 0.5) mg/kg BW split dose on D0 and D7 via drinking water, infestation on D19
[29] = Group D, 1 (2 × 0.5) mg/kg BW split dose on D0 and D7 via drinking water, infestation on D22

For `Cc1cc(C2=NOC(c3cc(Cl)cc(Cl)c3)(C(F)(F)F)C2)ccc1C(=O)NCC(=O)NCC(F)(F)F` (stereo not shown) [fluralaner, 4-[5-(3,5-Dichlorophenyl)-5-trifluoromethyl-4,5-dihydroisoxazol-3-yl]-2-methyl-N-[(2,2,2-trifluoro-ethylcarbamoyl)-methyl]-benzamide], the “% Inhibition of mites 24 hours after infestation” value (“% Inhibition of mites 24 hours” for short) (Dermanyssus gallinae; [2]) was 100%, the “% Mortality of mites 24 hours after infestation” value (“% Mortality of mites 24 hours” below) (Dermanyssus gallinae; [2]) was 100% and the “% Inhibition of mites 24 hours” value (Dermanyssus gallinae; [3]) was 100%. For the same compound, the “% Mortality of mites 24 hours” value (Dermanyssus gallinae; [3]) was 100%, the “% Inhibition of mites 24 hours” value (Dermanyssus gallinae; [4]) was 100% and the “% Mortality of mites 24 hours” value (Dermanyssus gallinae; [4]) was 100%. For the same compound, the “% Inhibition of mites 24 hours” value (Dermanyssus gallinae; [5]) was 100%, the “% Mortality of mites 24 hours” value (Dermanyssus gallinae; [5]) was 100% and the “% Inhibition of mites 24 hours” value (Dermanyssus gallinae; [6]) was 81%. For the same compound, the “% Mortality of mites 24 hours” value (Dermanyssus gallinae; [6]) was 77%, the “% Inhibition of mites 24 hours” value (Dermanyssus gallinae; [7]) was 14% and the “% Mortality of mites 24 hours” value (Dermanyssus gallinae; [7]) was 1%. For the same compound, the “% Inhibition of mites 24 hours” value (Dermanyssus gallinae; [8]) was 0%, the “% Mortality of mites 24 hours” value (Dermanyssus gallinae; [8]) was 0% and the “% Inhibition of mites 24 hours” value (Dermanyssus gallinae; [9]) was 100%. For the same compound, the “% Mortality of mites 24 hours” value (Dermanyssus gallinae; [9]) was 100%, the “% Inhibition of mites 24 hours” value (Dermanyssus gallinae; [10]) was 100% and the “% Mortality of mites 24 hours” value (Dermanyssus gallinae; [10]) was 100%. The “% Inhibition of mites 24 hours” value (Dermanyssus gallinae; [11]) was 100%, the “% Mortality of mites 24 hours” value (Dermanyssus gallinae; [11]) was 100% and the “% Inhibition of mites 24 hours” value (Dermanyssus gallinae; [12]) was 95%. The “% Mortality of mites 24 hours” value (Dermanyssus gallinae; [12]) was 94%, the “% Inhibition of mites 24 hours” value (Dermanyssus gallinae; [13]) was 81% and the “% Mortality of mites 24 hours” value (Dermanyssus gallinae; [13]) was 77%. For the same compound, the “% Inhibition of mites 24 hours” value (Dermanyssus gallinae; [14]) was 3%, the “% Mortality of mites 24 hours” value (Dermanyssus gallinae; [14]) was 2% and the “% Inhibition of mites 24 hours” value (Dermanyssus gallinae; [15]) was 0%. The “% Mortality of mites 24 hours” value (Dermanyssus gallinae; [15]) was 0%, the “% Inhibition of mites 24 hours” value (Dermanyssus gallinae; [16]) was 100% and the “% Mortality of mites 24 hours” value (Dermanyssus gallinae; [16]) was 100%. For the same compound, the “% Inhibition of mites 24 hours” value (Dermanyssus gallinae; [17]) was 100%, the “% Mortality of mites 24 hours” value (Dermanyssus gallinae; [17]) was 100% and the “% Inhibition of mites 24 hours” value (Dermanyssus gallinae; [18]) was 100%. For the same compound, the “% Mortality of mites 24 hours” value (Dermanyssus gallinae; [18]) was 97%, the “% Inhibition of mites 24 hours” value (Dermanyssus gallinae; [19]) was 75% and the “% Mortality of mites 24 hours” value (Dermanyssus gallinae; [19]) was 55%. The “% Inhibition of mites 24 hours” value (Dermanyssus gallinae; [20]) was 19%, the “% Mortality of mites 24 hours” value (Dermanyssus gallinae; [20]) was 15% and the “% Inhibition of mites 24 hours” value (Dermanyssus gallinae; [21]) was 0%. The “% Mortality of mites 24 hours” value (Dermanyssus gallinae; [21]) was 0%, the “% Inhibition of mites 24 hours” value (Dermanyssus gallinae; [22]) was 0% and the “% Mortality of mites 24 hours” value (Dermanyssus gallinae; [22]) was 0%. The “% Inhibition of mites 24 hours” value (Dermanyssus gallinae; [23]) was 100%, the “% Mortality of mites 24 hours” value (Dermanyssus gallinae; [23]) was 100% and the “% Inhibition of mites 24 hours” value (Dermanyssus gallinae; [24]) was 100%. The “% Mortality of mites 24 hours” value (Dermanyssus gallinae; [24]) was 100%, the “% Inhibition of mites 24 hours” value (Dermanyssus gallinae; [25]) was 100% and the “% Mortality of mites 24 hours” value (Dermanyssus gallinae; [25]) was 100%. For the same compound, the “% Inhibition of mites 24 hours” value (Dermanyssus gallinae; [26]) was 100%, the “% Mortality of mites 24 hours” value (Dermanyssus gallinae; [26]) was 100% and the “% Inhibition of mites 24 hours” value (Dermanyssus gallinae; [27]) was 99%. For the same compound, the “% Mortality of mites 24 hours” value (Dermanyssus gallinae; [27]) was 98%, the “% Inhibition of mites 24 hours” value (Dermanyssus gallinae; [28]) was 66% and the “% Mortality of mites 24 hours” value (Dermanyssus gallinae; [28]) was 59%. The “% Inhibition of mites 24 hours” value (Dermanyssus gallinae; [29]) was 27%, the “% Mortality of mites 24 hours” value (Dermanyssus gallinae; [29]) was 14% and the “Onset of action against red mites” value (Dermanyssus gallinae; all administered doses, orally via drinking water) was “fast onset of action”. For the same compound, the Tolerability in hens [1] was “well tolerated”.
